Values of other authors in patent publication US20150366978A1, “Compositions Containing Chondroitin Sulphate, Proteolytic Enzymes and Sulphydryl Compounds for Improving the Bioavailability of Chondroitin Sulphate” (GNOSIS S.P.A., priority 2013, published 2015).

Assays:
[1] = oral

chondroitin sulphate [CS]
total uptake of CS by the intestinal mucosa ([1]; including oligosaccharides, % of the polysaccharide ingested): 20-23%

chondroitin sulphate [high-molecular-weight CS]
absorption of high-molecular-weight CS ([1]; absorbed as intact polysaccharide): 1-5%

bromelain
oral bioavailability: around 40%
